# Experimental data taken from patent US20260373186A1 (Mireca Medicines GmbH, priority 2022, published 2026).
# Where a name gives a salt, the structure may show the parent alone. Read-outs that look alike come from different tables or passages of the source.
# What was measured:
# [1] = Drug loading of Compound 188-loaded microparticles (HPLC); assay type: physicochemical; conditions: 99% PLGA75125 4A and 1% PLGA5050-PEG5K
# [2] = In vitro drug release from Compound 188-loaded microparticles; assay type: physicochemical; conditions: 99% PLGA75125 4A and 1% PLGA5050-PEG5K, PBS with 1% Tween 20, 37 °C
# [3] = In vitro drug release from Compound 221-loaded implants; assay type: physicochemical; conditions: implants (hot melt extrusion), 99% PLGA75125 4A and 1% PLGA5050-PEG5K; PBS with 1% Tween 20, 37 °C
# Protocol: (§1) Compound 221 and biodegradable polymer excipients including PLGA and PLGA-PEG were weighed and thoroughly premixed in a sealed container. The powder blend was fed into an extruder (HAAKE Twin Screw Compounder, Thermo Fisher Scientific), which was pre-set to a temperature of 80-90 °C and a screw speed of 150 rpm. The blend was heated in the extruder and recirculated in the extruder chamber through an internal loop channel for a pre-set duration (e.g., 2-30 min). The filament was extruded at pre-set screw speed (e.g, 10-300 rpm) through a die, guided by a conveying belt and cut into desired length (3-10 mm) for further testing.
# (§2) The drug loading of the implants was quantitated by HPLC.
# [4] = Drug loading of Compound 221-loaded implants (HPLC); assay type: physicochemical; conditions: implants (hot melt extrusion), 99% PLGA75125 4A and 1% PLGA5050-PEG5K
# Protocol: as §1, §2
# [5] = In vitro drug release from Compound 221-loaded microparticles; conditions: 99% PLGA75125 4A and 1% PLGA5050-PEG5K, PBS with 1% Tween 20, 37 °C
# [6] = Drug loading of Compound 221-loaded microparticles (HPLC); conditions: 99% PLGA75125 4A and 1% PLGA5050-PEG5K
# [7] = system: cGMP dependent protein kinase; conditions: cited from earlier work
# [8] = system: photoreceptors of rd1 explants; assay: Photoreceptor cell death in rd1 retinal explants (TUNEL); assay type: cell-based; conditions: Mus musculus
# From the text: Legend: The animals at the age of postnatal day 5 (PN5) were killed by decapitation and retinas were dissected out with retinal pigment epithelium attached as described previously (Caffe, A. R.; Ahuja, P.; Holmqvist, B.; Azadi, S.; Forsell, J.; Holmqvist, I.; Soderpalm, A. K.; van Veen, T., Mouse retina explants after long-term culture in serum free medium. J Chem Neuroanat 2001, 22 (4), 263-73). The retinas were flattened out on the membranes of commercially available 6-well culture inserts, after which 1.5 ml of a custom made culturing medium was added to each well. These explants were then kept in culture for two days without any treatment after which the test analog of the invention at the desired concentration was added at a medium change at PN7 (“7” in Figure). […]
# Legend: Effects of selected analogs at given concentrations of the invention on the cell death of photoreceptors of rd1 explants. The cell death was assessed by so called TUNEL stain on fixated and sectioned material, after which the number of dying cells was counted and analyzed, and compared with that from untreated rd1 explants. In order to allow more direct comparisons between the different analogs and concentrations a ratio of treated/untreated specimens was calculated. […]
# [9] = system: rd1 and rd2 photoreceptors; conditions: in vitro; cited from earlier work
# [10] = system: rd1 and rd2 photoreceptors; conditions: in vivo mouse retinitis pigmentosa models; cited from earlier work
structure (smiles),measurement,setting,value
"Cc1ccc(-c2cn3c(=O)c4nc(Br)n([C@@H]5O[C@@H]6CO[P@@](=O)(S)O[C@H]6[C@H]5O)c4nc3[nH]2)cc1 [Compound 188-BEN, 8-bromo-(4-methyl-β-phenyl-1,N^2-etheno)guanosine-3′,5′-cyclic monophosphorothioate, Rp-isomer, N-benzyl-2-phenylethan-1-aminium salt]",Compound 188 loading (w/w),[1]; target drug loading 30%,26%
same,Release duration,[2]; target drug loading 30%,29 days
"Cc1ccc(-c2cn3c(=O)c4nc(Br)n([C@@H]5O[C@@H]6CO[P@@](=O)(S)O[C@H]6[C@H]5O)c4nc3[nH]2)cc1 [Compound 188-BEZ, 8-bromo-(4-methyl-β-phenyl-1,N^2-etheno)guanosine-3′,5′-cyclic monophosphorothioate, Rp-isomer, N-benzyl-2-(benzylamino)ethan-1-aminium salt]",Compound 188 loading (w/w),[1]; target drug loading 20%,19.6%
same,Release duration: % released in 49 days,"[2]; target drug loading 20%, in 49 days",32% released
Cc1ccc(-c2cn3c(=O)c4nc(Br)n([C@@H]5O[C@@H]6CO[P@@](=O)(S)O[C@H]6[C@H]5O)c4nc3[nH]2)cc1 [Compound 188-Ca],Compound 188 loading (w/w),[1]; target drug loading 30%,3%
"O=c1c2nc(Br)n([C@@H]3O[C@@H]4CO[P@@](=O)(S)O[C@H]4[C@H]3O)c2nc2[nH]c(-c3ccccc3)cn12 [Compound 221-BEN, 8-bromo-(β-phenyl-1,N^2-etheno)guanosine-3′,5′-cyclic monophosphorothioate, Rp-isomer, N-benzyl-2-phenylethan-1-aminium salt]",Release duration,[3],40 days
same,Compound 221 loading (w/w),[4],30.0%
same,Release duration,[5]; target drug loading 30%,43 days
same,Compound 221 loading (w/w),[6]; target drug loading 30%,22.5%
"O=c1c2nc(Br)n([C@@H]3O[C@@H]4CO[P@@](=O)(S)O[C@H]4[C@H]3O)c2nc2[nH]c(-c3ccccc3)cn12 [Compound 221-BEZ, 8-bromo-(β-phenyl-1,N^2-etheno)guanosine-3′,5′-cyclic monophosphorothioate, Rp-isomer which is N-benzyl-2-(benzylamino)ethan-1-aminium salt]",Release duration,[3],40 days
same,Compound 221 loading (w/w),[4],30.0%
same,Release duration,[5]; target drug loading 30%,35 days
same,Compound 221 loading (w/w),[6]; target drug loading 30%,14.0%
O=c1c2nc(Br)n([C@@H]3O[C@@H]4CO[P@@](=O)(S)O[C@H]4[C@H]3O)c2nc2[nH]c(-c3ccccc3)cn12 [Compound 221-Ca],Release duration,[3],40 days
same,Compound 221 loading (w/w),[4],30.0%
O=c1c2nc(Br)n([C@@H]3O[C@@H]4CO[P@@](=O)(S)O[C@H]4[C@H]3O)c2nc2[nH]c(-c3ccccc3)cn12 [Compound 221-FA],Release duration,[3],26 days
same,Compound 221 loading (w/w),[4],10.5%
same,Release duration,[5]; target drug loading 10%,22 days
same,Compound 221 loading (w/w),[6]; target drug loading 10%,1.2%
O=c1c2nc(Br)n([C@@H]3O[C@@H]4CO[P@@](=O)(S)O[C@H]4[C@H]3O)c2nc2[nH]c(-c3ccccc3)cn12 [Compound 221-Na],Release duration,[3],14 days
same,Compound 221 loading (w/w),[4],17.4%
O=c1c2nc(Br)n([C@@H]3O[C@@H]4CO[P@@](=O)(S)O[C@H]4[C@H]3O)c2nc2[nH]c(-c3ccccc3)cn12 [Compound 221-TEA],Release duration,[3],40 days
same,Compound 221 loading (w/w),[4],15.75%
same,Release duration,[5]; target drug loading 10%,35 days
same,Compound 221 loading (w/w),[6]; target drug loading 10%,1.8%
O=c1c2nc(Br)n([C@@H]3O[C@@H]4CO[P@@](O)(=S)O[C@H]4[C@H]3O)c2nc2[nH]c(-c3ccccc3)cn12 [Rp-8-Br-PET-cGMPS],efficacy / agonistic properties,[7],suboptimal efficacies or even partially agonistic properties
same,"photoreceptor cell death, % of untreated at 50 µM","[8]; TUNEL, untreated = 1.0, n = 8, read-out: effect ratio of treated/untreated specimens (photoreceptor cell death)",~78%
same,inhibition at 50 µM,"[8]; vs untreated, read-out: reduction of photoreceptor cell death",> 20%
Nc1nc2c(nc(Br)n2[C@@H]2O[C@@H]3COP(O)(=S)O[C@H]3[C@H]2O)c(=O)[nH]1 (stereo partly drawn) [Rp-8-Br-cGMPS],protection for rd1 and rd2 photoreceptors,[9],some protection
same,protection for rd1 and rd2 photoreceptors,[10],some protection
